Measurements: patent US10538521B2, “Pyrimidine derivative having antimalarial activity” (CARNA BIOSCIENCES, INC., priority 2016, dated 2020)

Experiments:
[1] = tested on: K1 strain, a drug resistant strain of Plasmodium falciparum; experiment: In vitro antimalarial assay (p-LDH, Malstat), K1 strain; type: cell-based; settings: P. falciparum K1 (drug resistant), 72 h culture, p-LDH readout, read-out: Antimalarial activity (IC50 value), Strain K1
In short: (§1)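 IC50 derived from concentration-response of parasite lactate dehydrogenase signal (Malstat reagent, NBT/PES formazan at 655 nm) after freeze-thaw lysis. Infected erythrocytes (hematocrit 2%, parasitaemia 0.5 or 1%) exposed 72 h to 12.5–0.0001 μM final compound under 3% O2-4% CO2-93% N2, FCR3 and K1 alike.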

[2] = tested on: FCR3 strain, a drug sensitive strain of Plasmodium falciparum; experiment: In vitro antimalarial assay (p-LDH, Malstat), FCR3 strain; type: cell-based; settings: P. falciparum FCR3 (drug sensitive), 72 h culture, p-LDH readout, read-out: Antimalarial activity (IC50 value), Strain FCR3
In short: as §1

Row | Structure (SMILES) | IC50 [1] [nM] | IC50 [2] [nM]
1 | COc1ccnc(Nc2nc(Nc3ccn4ccnc4c3)cc(N3CCCC3)n2)c1 [Example 128, N4-(imidazo[1,2-a]pyridin-7-yl)-N2-(4-methoxypyridin-2-yl)-6-(pyrrolidin-1-yl)pyrimidine-2,4-diamine] | < 100 | < 100
2 | COCCc1cccc(Nc2nc(Nc3ccn4ccnc4c3)cc(N3CCCC3)n2)n1 [Example 159, N4-(imidazo[1,2-a]pyridin-7-yl)-N2-[6-(2-methoxyethyl)pyridin-2-yl]-6-(pyrrolidin-1-yl)pyrimidine-2,4-diamine] | < 100 | < 100
3 | CC(C)(C)c1cccc(Nc2nc(Nc3ccn4ccnc4c3)cc(N3CCCCC3)n2)n1 [Example 122, N2-(6-(tert-butyl)pyridin-2-yl)-N4-(imidazo[1,2-a]pyridin-7-yl)-6-(piperidin-1-yl)pyrimidine-2,4-diamine] | 100 to 1000 | 100 to 1000
4 | CCc1ccnc(Nc2nc(Nc3ccn4ccnc4c3)cc(N3CCC(O)CC3)n2)c1 [Example 111, 1-(2-((4-ethylpyridin-2-yl)amino)-6-(imidazo[1,2-a]pyridin-7-ylamino)pyrimidin-4-yl)piperidin-4-ol] | < 100 | < 100
5 | COCCOc1ccc(Nc2nc(Nc3ccn4ccnc4c3)cc(N3CCOCC3)n2)cn1 [Example 66, N4-(imidazo[1,2-a]pyridin-7-yl)-N2-(6-(2-methoxyethoxy)-pyridin-3-yl)-6-morpholino-pyrimidine-2,4-diamine] | 100 to 1000 | 100 to 1000
6 | Cc1ccnc(Nc2nc(Nc3ccn4ccnc4c3)cc(-n3ccnc3)n2)c1 [Example 42, N4-(imidazo[1,2-a]pyridin-7-yl)-6-(1H-imidazol-1-yl)-N2-(4-methylpyridin-2-yl)pyrimidine-2,4-diamine] | 100 to 1000 | 100 to 1000
7 | Cc1cc(C)nc(Nc2nc(Nc3ccn4ccnc4c3)cc(N3CC[C@H](F)C3)n2)c1 [Example 185, (S)-N2-(4,6-dimethylpyridin-2-yl)-6-(3-fluoropyrrolidin-1-yl)-N4-(imidazo[1,2-a]pyridin-7-yl) pyrimidine-2,4-diamine] | < 100 | < 100
8 | CCc1ccnc(Nc2nc(Nc3ccn4ccnc4c3)cc(N3CCC4(CCCC4)C3)n2)c1 [Example 208, N2-(4-ethylpyridin-2-yl)-N4-(imidazo[1,2-a]pyridin-7-yl)-6-(2-azaspiro[4.4]nonan-2-yl) pyrimidine-2,4-diamine] | 100 to 1000 | 100 to 1000
9 | c1cn2ccc(Nc3cc(N4CCOCC4)nc(Nc4ccc(OC5CCC5)nc4)n3)cc2n1 [Example 80, N2-(6-cyclobutoxypyridin-3-yl)-N4-(imidazo[1,2-a]pyridin-7-yl)-6-morpholinopyrimidine-2,4-diamine] | 100 to 1000 | 100 to 1000
10 | Cc1cc(C)nc(Nc2nc(Nc3ccn4ccnc4c3)cc(-n3ccnc3)n2)c1 [Example 46] | 100 to 1000 | < 100
11 | CN(C)CCOc1ccc(Nc2nc(Nc3ccn4ccnc4c3)cc(N3CCOCC3)n2)cn1 [Example 61, N2-(6-(2-(dimethylamino)ethoxy)pyridin-3-yl)-N4-(imidazo[1,2-a]pyridin-7-yl)-6-morpholino-pyrimidine-2,4-diamine] | 1000 to 10000 | 100 to 1000
12 | CCCc1cccc(Nc2nc(Nc3ccn4ccnc4c3)cc(N3CCOCC3)n2)n1 [Example 108, N4-(imidazo[1,2-a]pyridin-7-yl)-6-morpholino-N2-(6-propylpyridin-2-yl)pyrimidine-2,4-diamine] | 100 to 1000 | < 100
13 | Fc1ccnc(Nc2nc(Nc3ccn4ccnc4c3)cc(N3CCOCC3)n2)c1 [Example 21, N2-(4-Fluoropyridin-2-yl)-N4-(imidazo[1,2-a]pyridin-7-yl)-6-morpholinopyrimidine-2,4-diamine] | 100 to 1000 | 100 to 1000
14 | Cc1ccc(Nc2nc(Nc3ccn4ccnc4c3)cc(N3CCCCC3)n2)cn1 [Example 79, N4-(imidazo[1,2-a]pyridin-7-yl)-N2-(6-methylpyridin-3-yl)-6-(piperidin-1-yl)pyrimidine-2,4-diamine] | 100 to 1000 | 100 to 1000
15 | CC(C)COc1cccc(Nc2nc(Nc3ccn4ccnc4c3)cc(N3CCCC3)n2)n1 [Example 158, N4-(imidazo[1,2-a]pyridin-7-yl)-N2-(6-isobutoxypyridin-2-yl)-6-(pyrrolidin-1-yl)pyrimidine-2,4-diamine] | 100 to 1000 | < 100
16 | CCc1ccnc(Nc2nc(Nc3ccn4ccnc4c3)cc(N3CCN(C(=O)OC(C)(C)C)[C@H](C)C3)n2)c1 [Example 100, (R)-tert-butyl 4-(2-((4-ethylpyridin-2-yl)amino)-6-(imidazo[1,2-a]pyridin-7-ylamino)pyrimidin-4-yl)-2-methylpiperazine-1-carboxylate] | 100 to 1000 | 100 to 1000
17 | CCc1ccnc(Nc2nc(Nc3ccn4ccnc4c3)cc(N3CCC(N4CCOCC4)CC3)n2)c1 [Example 112, N2-(4-ethylpyridin-2-yl)-N4-(imidazo[1,2-a]pyridin-7-yl)-6-(4-morpholinopiperidin-1-yl)pyrimidine-2,4-diamine] | < 100 | < 100
18 | Cc1cc(C)nc(Nc2nc(Nc3ccn4ccnc4c3)cc(N3CCN[C@@H](C)C3)n2)c1 [Example 31, (S)-N2-(4,6-dimethylpyridin-2-yl)-N4-(imidazo[1,2-a]pyridin-7-yl)-6-(3-methylpiperazin-1-yl)pyrimidine-2,4-diamine] | 100 to 1000 | 100 to 1000
19 | CCc1ccnc(Nc2nc(Nc3ccn4ccnc4c3)cc(N3CCCCC3)n2)c1 [Example 71, N2-(4-ethylpyridin-2-yl)-N4-(imidazo[1,2-a]pyridin-7-yl)-6-(piperidin-1-yl)pyrimidine-2,4-diamine] | < 100 | < 100
20 | CCc1ccnc(Nc2nc(Nc3ccn4ccnc4c3)cc(N3CCN(C)[C@H](C)C3)n2)c1 [Example 104, (R)-6-(3,4-dimethylpiperazin-1-yl)-N2-(4-ethylpyridin-2yl)-N4-(imidazo[1,2-a]pyridin-7-yl)pyrimidine-2,4-diamine] | 1000 to 10000 | 100 to 1000
21 | COc1ccncc1Nc1nc(Nc2ccn3ccnc3c2)cc(N2CCOCC2)n1 [Example 23, N4-(Imidazo[1,2-a]pyridin-7-yl)-N2-(4-methoxypyridin-3-yl)-6-morpholinopyrimidine-2,4-diamine] | 1000 to 10000 | 100 to 1000
22 | Cc1nc(Nc2nc(Nc3ccn4ccnc4c3)cc(N3CCCCC3)n2)ccc1Cl [Example 203, N2-(5-chloro-6-methylpyridin-2-yl)-N4-(imidazo[1,2-a]pyridin-7-yl)-6-(piperidin-1-yl) pyrimidine-2,4-diamine] | 100 to 1000 | 100 to 1000
23 | Cc1ccc(Nc2nc(Nc3ccn4ccnc4c3)cc(N3CCCCC3)n2)nc1 [Example 26, N4-(imidazo[1,2-a]pyridin-7-yl)-N2-(5-methylpyridin-2-yl)-6-(piperidin-1-yl)pyrimidine-2,4-diamine] | < 100 | < 100
24 | CN1CCC(Oc2ccc(Nc3nc(Nc4ccn5ccnc5c4)cc(N4CCOCC4)n3)cn2)CC1 [Example 89, N4-(imidazo[1,2-a]pyridin-7-yl)-N2-(6-((1-methylpiperidin-4-yl)oxy)pyridin-3-yl)-6-morpholinopyrimidine-2,4-diamine] | 100 to 1000 | < 100
